ChEMBL document CHEMBL1130449, “Potent novel nonsteroidal androgen antagonists with a phthalimide skeleton” (1997)

How the values were obtained:
SC-3 = test: Growth inhibition of androgen-dependent clonal cell line SC-3, derived from Shionogi carcinoma 115; assay type: functional, Mus musculus; parameters: unit not given here
HL-60 [1] = test: Production of TNF-alpha by HL-60 cells in the presence of 50 nM okadaic acid with 300 nM test compound
HL-60 [2] = test: Production of TNF-alpha in HL-60 cells in the presence of 50 nM okadaic acid with 30 uM test compound

SMILES | No. of cells (SC-3) | Production (HL-60 [1]) [%] | Production (HL-60 [2]) [%]
C[C@@H](c1ccccc1)N1C(=O)c2c(F)c(F)c(F)c(F)c2C1=O | 16 | 2 | 
O=C1c2c(F)c(F)c(F)c(F)c2C(=O)N1CC1Cc2ccccc2C1 | 61 | 43 | 
O=C1c2ccccc2C(=O)N1CNc1ccccc1 | 91 |  | 73
O=C1c2ccccc2C(=O)N1CC1Cc2ccccc2C1 | 56 |  | 50
C[C@H](c1cccc2ccccc12)N1C(=O)c2c(F)c(F)c(F)c(F)c2C1=O | 14 | 101 | 
CC(=O)C(CN1C(=O)c2ccccc2C1=O)C(C)=O | 49 |  | 72
CC(C)C(=O)Nc1ccc([N+](=O)[O-])c(C(F)(F)F)c1 [FLUTAMIDE] | 66 |  | 103
C[C@@H](c1cccc2ccccc12)N1C(=O)c2c(F)c(F)c(F)c(F)c2C1=O | 9 | 2 | 
O=C1c2ccccc2C(=O)N1Cc1c(Cl)cccc1Cl | 69 |  | 39
C[C@H](c1ccccc1)N1C(=O)c2c(F)c(F)c(F)c(F)c2C1=O | 3 | 70 | 
C[C@@H](C1CCCCC1)N1C(=O)c2c(F)c(F)c(F)c(F)c2C1=O | 2 | 10 | 
C[C@H](C1CCCCC1)N1C(=O)c2c(F)c(F)c(F)c(F)c2C1=O | 5 | 65 | 
O=C1c2c(F)c(F)c(F)c(F)c2C(=O)N1Cc1c(Cl)cccc1Cl | 45 | 76 | 
